Legend:
Conditions in all cases: 72 h
[1] = tested on: Caco-2; assay: relative viability EC50 (midpoint between 100% and the lowest measured viability); higher = less toxic
[2] = tested on: HepG2; assay: as above
[3] = tested on: U2OS; assay: as above
[4] = tested on: Calu-3; assay: as above
[5] = tested on: Vero E6; assay: as above
[6] = tested on: Caco-2; assay: drug sensitivity score (DSS) for viability; higher = more toxic; extreme values may be limits of the assay
[7] = tested on: HepG2; assay: as above
[8] = tested on: U2OS; assay: as above
[9] = tested on: Calu-3; assay: as above
[10] = tested on: Vero E6; assay: as above
[11] = tested on: Caco-2; assay: cell viability relative to DMSO; higher = less toxic
[12] = tested on: HepG2; assay: as above
[13] = tested on: U2OS; assay: as above
[14] = tested on: Calu-3; assay: as above
[15] = tested on: Vero E6; assay: as above

Structure (SMILES)	relative viability EC50 [1] [µM]	relative viability EC50 [2] [µM]	relative viability EC50 [3] [µM]	relative viability EC50 [4] [µM]	relative viability EC50 [5] [µM]	drug sensitivity score [6]	drug sensitivity score [7]	drug sensitivity score [8]	drug sensitivity score [9]	drug sensitivity score [10]	cell viability ([11]; 1 nM) [%]	cell viability ([11]; 10 nM) [%]	cell viability ([11]; 100 nM) [%]	cell viability ([11]; 1000 nM) [%]	cell viability ([11]; 10000 nM) [%]	cell viability ([12]; 1 nM) [%]	cell viability ([12]; 10 nM) [%]	cell viability ([12]; 100 nM) [%]	cell viability ([12]; 1000 nM) [%]	cell viability ([12]; 10000 nM) [%]	cell viability ([13]; 1 nM) [%]	cell viability ([13]; 10 nM) [%]	cell viability ([13]; 100 nM) [%]	cell viability ([13]; 1000 nM) [%]	cell viability ([13]; 10000 nM) [%]	cell viability ([14]; 1 nM) [%]	cell viability ([14]; 10 nM) [%]	cell viability ([14]; 100 nM) [%]	cell viability ([14]; 1000 nM) [%]	cell viability ([14]; 10000 nM) [%]	cell viability ([15]; 1 nM) [%]	cell viability ([15]; 10 nM) [%]	cell viability ([15]; 100 nM) [%]	cell viability ([15]; 1000 nM) [%]	cell viability ([15]; 10000 nM) [%]
COc1ccc(C(CN(C)C)C2(O)CCCCC2)cc1 (stereo not given) [venlafaxine]	> 10	> 10	> 10	> 10	> 10	0.2	0	0	0	0	110	87.5	125	127	82	108	112	95.8	93.2	107	97.1	91.5	102	97.4	102	104	99.9	95.6	99.9	107	99.2	100	84.1	92.9	101
CCS(=O)(=O)c1cccc(-c2cc(C(=O)NC3CCN(C)CC3)c(C)c3[nH]c4ncc(C)cc4c23)c1 [TAK-901]	1.06	0.439	1.43	1.28	> 10	6.7	12.7	8.9	8	1.1	98.4	99.7	90.4	72	36.5	94.1	104	76.5	48.1	15.7	98.3	98.5	98.9	73.6	9.3	108	100	95.5	69.9	21.3	105	100	100	97	78.7
Cn1c(=O)[nH]c2ncn(C)c2c1=O [paraxanthine]	> 10	> 10	> 10	> 10	> 10	0	0	0	0	0	95.4	106	97.4	102	91.8	102	100	106	103	93.2	97.4	101	98.2	100	99.7	94.9	101	92.9	89.8	98.1	95.5	95.8	99.2	93.5	98.2
CCCCCCc1ccc(O)cc1O [hexylresorcinol]	> 10	> 10	> 10	> 10	> 10	0	0	0	0	0	95.9	98.5	98.4	100	94.9	105	98.7	107	93.7	94	98.3	101	97.5	104	99.9	91	109	104	97.8	99.7	102	101	106	103	96.7
OC(CCN1CCCCC1)(c1ccccc1)c1ccccc1 [pridinol]	> 10	> 10	> 10	> 10	> 10	0	0	0	0	0	96.9	108	97.9	94.9	99	101	95.3	101	106	106	99.5	102	93.7	93.5	100	97.8	96.9	91.7	99.4	93.2	99.8	103	100	93.8	98.5
CN(CCc1ccc(Cl)c(Cl)c1)CCN1CCCC1 [BD-1008]	> 10	> 10	> 10	> 10	> 10	0	0	0	0	0	101	96.7	95.5	93.8	94.2	91.5	107	104	117	106	97.4	96.5	97	93.2	93.3	95.8	98.5	94.6	96.9	101	100	96.2	94.2	95	106
CC(C)C(N)C(=O)O (stereo in doubt) [L-valine]	> 10	> 10	> 10	> 10	> 10	0	0	0	0	0	96	91.3	100	98.7	102	94.8	94.5	99	96.9	99.3	101	92.7	98.1	93.5	102	102	105	95.9	93	99	96.8	96.7	96.6	92.3	95.5

Reference: the supplement of paper PMC13380429
